In patent US20260297105A1, “RAF-MEK PROTEIN COMPLEX MODULATORS AND METHODS OF USE THEREOF” (GANDEEVA THERAPEUTICS, INC., priority 2023, published 2026) one finds EC50 and IC50 data, which are given here for 18 compounds.

Each structure is given as a SMILES string. Like-named read-outs stand apart in the source and are kept apart here.

The test system of one test is BRAF-MEK1. The test can be described thus: BRAF-MEK TR-FRET assay, stabilization of MEK1 and BRAF interaction. It is filed as binding. To be noted: 4 nM BRAF, 10 nM MEK, 100 μM ATP, 1 hr at 25° C., read-out: BRAF-MEK TR-FRET Assay (EC50, fold stabilization). The text has this:
Protein expression and purification: BRAF (445-723) with N-term His-tag and C-term StrepII tag was expressed using the Expi293 system (ThermoFisher) and purified using Strep-Tactin® XT-Superflow (IBA) chromatography. ERK1 (full-length) with N-term His-tag was expressed in Rosetta DE3 cells (Millipore) and purified using HisTrap HP (Cytiva) and Superdex 200 (Cytiva) column chromatography. Full-length MEK1 for TR-FRET assays with N-term His-tag was expressed in BL21DE3 cells (ThermoFisher) and purified using HisTrap HP (Cytiva) and Superdex 200 (Cytiva) column chromatography.
Efficacy of exemplary compounds in stabilization of MEK1 and BRAF interaction: Compound stabilization of BRAF-MEK interaction was evaluated using TR-FRET (Time Resolved Fluorescence Energy Transfer). The FRET assay consisted of His-tagged MEK1 (produced in-house), GST-tagged BRAF (SignalChem, B08-11G), Anti His-Tb Cryptate donor, and Anti GST-XL665 acceptor fluorophores (PerkinElmer) to generate FRET signal upon BRAF-MEK1 binding. Compounds were prepared from DMSO stocks in assay buffer (50 mM Tris pH 7.5, 150 mM NaCl, 1 mM DTT, 0.05% Tween-20, 5 mM MgCl2, and 100 μM ATP) and incubated with 4 nM BRAF and 10 nM MEK for 1 hr at 25° C. 1 ng Anti His-Tb Cryptate/20 ng Anti GST-XL665 premix was then added and incubated for 1 hr at 25° C. TR-FRET was measured using Cytation5 microplate reader (Agilent) using Ex/Em=340/620 nm and Ex/Em=340/665 nm to determine the FRET ratio. Fold stabilization was calculated as FRET signal of treated well/DMSO control. Fold stabilization as a function of compound concentration from 2 replicate wells was fit with a 4-parameter logistic curve equation using GraphPad Prism or CDD Vault to derive EC50 values.
In this table, for the BRAF ADP Glo kinase assay, “A” indicates IC50 of less than 5 nM; “B” indicates IC50 of between 5 nM to 50 nM; and “C” indicates IC50 of between 50 nM to 500 nM. “D” indicates IC50 of greater than 500 nM. For the BRAF-MEK TR-FRET assay, “A” indicates EC50 of less than 50 nM; “B” indicates EC50 of between 50 nM to 200 nM; and “C” indicates EC50 of between 200 nM to 1 μM. “D′” indicates EC50 of greater than 1 μM. For the AlphaLisa P-ERK assay, “A” indicates IC50 of less than 1 nM; “B” indicates IC50 of between 1 nM to 10 nM; and “C” indicates IC50 of between 10 nM to 100 nM. “D” indicates IC50 of greater than 100 nM. For the cell viability assay, “A” indicates IC50 of less than 1 nM; “B” indicates IC50 of between 1 nM to 10 nM; and “C” indicates IC50 of between 10 nM to 100 nM. “D” indicates IC50 of greater than 100 nM.
(In general: TR-FRET usually uses a lanthanide donor and a delayed reading to cut background.)

The next test has as its target T1, MEK1 (Homo sapiens, UniProt Q02750).
T1 construct: purchased SignalChem M02-14H
Briefly: MEK1 kinase cascade assay (ADP-Glo), inhibition of MEK1 kinase activity. To be noted: 25 nM BRAF, 6.25 nM MEK1, 0.5 μM ERK, 1 mM ATP; 20 min preincubation, 1 hr at 25° C.; read-out: BRAF ADP Glo kinase assay V3 (IC50). Format: biochemical. In outline:
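Cascade format with ADP-Glo read-out: BRAF (25 nM) and compound, 1% DMSO, 20 mins at 25° C, then MEK1 6.25 nM, ERK1 0.5 μM, ATP 1 mM for 1 hr at 25° C in HEPES pH 7.5 buffer with MgCl2, CHAPS and DTT. Percent inhibition, scaled between DMSO and 1 μM Trametinib, was fit by 4-parameter logistic to give IC50 (2 replicate wells).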
(In general: In ADP-Glo the light output rises with the ADP produced.)

T1 sequence (Q02750 whole entry): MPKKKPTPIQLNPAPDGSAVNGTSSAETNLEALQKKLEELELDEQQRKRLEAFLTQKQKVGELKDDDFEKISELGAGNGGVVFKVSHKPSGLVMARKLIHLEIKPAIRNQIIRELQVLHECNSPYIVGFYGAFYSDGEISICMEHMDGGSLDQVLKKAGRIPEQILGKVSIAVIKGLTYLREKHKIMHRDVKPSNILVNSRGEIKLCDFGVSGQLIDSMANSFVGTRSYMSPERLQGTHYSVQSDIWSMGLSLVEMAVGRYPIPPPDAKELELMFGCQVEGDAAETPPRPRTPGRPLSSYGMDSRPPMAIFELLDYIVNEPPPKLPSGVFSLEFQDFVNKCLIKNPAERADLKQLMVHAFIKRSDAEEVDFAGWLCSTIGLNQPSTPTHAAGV
T1 sequence (P15056 445-723 partner limits assumed): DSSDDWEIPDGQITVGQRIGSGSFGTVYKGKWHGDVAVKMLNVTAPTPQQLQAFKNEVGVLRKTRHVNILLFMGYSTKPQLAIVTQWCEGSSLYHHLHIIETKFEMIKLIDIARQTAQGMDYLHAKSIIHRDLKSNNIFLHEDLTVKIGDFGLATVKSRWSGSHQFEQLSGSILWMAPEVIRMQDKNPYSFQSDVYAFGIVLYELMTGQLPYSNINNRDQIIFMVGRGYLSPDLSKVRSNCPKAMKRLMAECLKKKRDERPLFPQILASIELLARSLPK

The term IC50 denotes the concentration at which inhibition is half-maximal. Take `CNS(=O)(=O)Nc1cccc(CN2C(=O)Oc3cc(OC(=O)N(C)C)ccc3C23CN(C)C3)c1F` [Compound 48, 3′-(2-fluoro-3-((N-methylsulfamoyl)amino)benzyl)-1-methyl-2′-oxo-2′,3′-dihydrospiro[azetidine-3,4′-benzo[e][1,3]oxazin]-7′-yl dimethylcarbamate]: the EC50 with BRAF-MEK1 is 200 to 1000 nM. Also, the IC50 at MEK1 was in the range of 5 to 50 nM.
On to `O=C1Oc2c(ccc(Oc3nccnn3)c2F)C2(CCC2)N1Cc1ccnc(NS(=O)(=O)C2CC2)c1F` [Compound 187, (cyclopropylsulfonyl)[3-fluoro-4-({8-fluoro-2-oxo-7-(1,2,4-triazin-3-yloxy)-2H,3H-spiro[1,3-benzoxazine-4,1′-cyclobutan]-3-yl}methyl)-2-pyridyl]amine], for which the EC50 in the test with BRAF-MEK1 is 50 to 200 nM. Besides, at MEK1, the IC50 was 5 to 50 nM.
For `CNS(=O)(=O)Nc1nccc(CN2C(=O)Oc3cc(Oc4cccnn4)ccc3[C@H]2C)c1F` (single isomer, unassigned) [Compound 23], the EC50 in the test on BRAF-MEK1 was below 50 nM. At MEK1, the IC50 was in the range of 5 to 50 nM.
Turning to `CNS(=O)(=O)Nc1cc(F)cc(CN2C(=O)Oc3cc(Oc4cccnn4)ccc3C23CCC3)c1F` [Compound 194, 3-{[2,5-difluoro-3-(methylaminosulfonylamino)phenyl]methyl}-7-(3-pyridazinyloxy)-2H,3H-spiro[1,3-benzoxazine-4,1′-cyclobutan]-2-one], the EC50 with BRAF-MEK1 fell in the range of 50 to 200 nM. In addition, the IC50 at MEK1 was 5 to 50 nM.
`CNS(=O)(=O)Nc1nccc(CN2C(=O)Oc3c(ccc(Oc4cccnn4)c3F)C23CCC3)c1F` [Compound 174, 8-fluoro-3-{[3-fluoro-2-(methylaminosulfonylamino)-4-pyridyl]methyl}-7-(3-pyridazinyloxy)-2H,3H-spiro[1,3-benzoxazine-4,1′-cyclobutan]-2-one]: in the test on BRAF-MEK1, the EC50 is below 50 nM. The half-inhibitory concentration (IC50) on MEK1 fell in the range of 5 to 50 nM.
In the same order, the values of `CNS(=O)(=O)Nc1cccc(CN2C(=O)Oc3cc(Oc4ncco4)c(F)cc3C2C)c1F` (single isomer, unassigned) [Compound 85, (R)-6-fluoro-3-({2-fluoro-3-(methylsulfamoyl)amino]phenyl}methyl)-4-methyl-7-(1,3-oxazol-2-yloxy)-3,4-dihydro-2H-1,3-benzoxazin-2-one or (S)-6-fluoro-3-({2-fluoro-3-(methylsulfamoyl)amino]phenyl}methyl)-4-methyl-7-(1,3-oxazol-2-yloxy)-3,4-dihydro-2H-1,3-benzoxazin-2-one] are 200 to 1000 nM and 5 to 50 nM.
For the compound `CNS(=O)(=O)Nc1nccc(CN2C(=O)Oc3cc(Oc4cccnn4)cc(F)c3C23CCC3)c1F` [Compound 171, 5-fluoro-3-{[3-fluoro-2-(methylaminosulfonylamino)-4-pyridyl]methyl}-7-(3-pyridazinyloxy)-2H,3H-spiro[1,3-benzoxazine-4,1′-cyclobutan]-2-one], the EC50 in the test with BRAF-MEK1 was below 50 nM. At MEK1, the IC50 was below 5 nM.
For the compound `CNS(=O)(=O)Nc1nccc(CN2C(=O)Oc3cc(Oc4cccnn4)cnc3[C@H]2C)c1F` (stereo in doubt) [Compound 192, 3-{[3-fluoro-2-(methylaminosulfonylamino)-4 pyridyl]methyl}-4-methyl-7-(3-pyridazinyloxy)-3,4-dihydro-2H-1-oxa-3,5 diazanaphthalen-2-one], the EC50 in the test on BRAF-MEK1 (60 min) lay in the range of 200 to 1000 nM. Also, on MEK1, the IC50 lay in the range of 5 to 50 nM.
Take `O=C1Oc2c(ccc(Oc3ncco3)c2F)C2(CCC2)N1Cc1ccnc(NS(=O)(=O)C2CC2)c1F` [Compound 183, (cyclopropylsulfonyl)[3-fluoro-4-({8-fluoro-7-(1,3-oxazol-2-yloxy)-2-oxo-2H,3H-spiro[1,3-benzoxazine-4,1′-cyclobutan]-3-yl}methyl)-2-pyridyl]amine]: in the test on BRAF-MEK1, the EC50 is 200 to 1000 nM. Further, the IC50 on MEK1 lay in the range of 50 to 500 nM.
Turning to `CNS(=O)(=O)Nc1cccc(CN2C(=O)Oc3cc(OC(=O)N(C)C)c(Cl)cc3[C@H]2C)c1F` [Compound 107, (R)-6-chloro-7-(dimethylaminocarbonyloxy)-3-{[2-fluoro-3-(methylaminosulfonylamino)phenyl]methyl}-4-methyl-3,4-dihydro-2H-1,3-benzoxazin-2-one], the EC50 in the test with BRAF-MEK1 lay in the range of 200 to 1000 nM. The IC50 on MEK1 lay in the range of 5 to 50 nM.
Consider `[2H]C1([2H])c2ccc(Oc3nccnn3)cc2OC(=O)N1Cc1cccc(NS(=O)(=O)NC)c1F` [Compound 31, 3-({2-fluoro-3-[(methylsulfamoyl)amino]phenyl}methyl)-7-(1,2,4-triazin-3-yloxy)-3,4-dihydro(4,4-^2 H2)-2H-1,3-benzoxazin-2-one], for which the EC50 in the test on BRAF-MEK1 was below 50 nM. Moreover, the IC50 at MEK1 was 5 to 50 nM.
As for `CNS(=O)(=O)Nc1cccc(CN2Cc3cc(F)c(OC(=O)N(C)C)cc3OC2=O)c1F` [Compound 120, 6-fluoro-3-(2-fluoro-3-((N-methylsulfamoyl)amino)benzyl)-2-oxo-3,4-dihydro-2H-benzo[e][1,3]oxazin-7-yl dimethylcarbamate], the EC50 in the test with BRAF-MEK1 lay within 50 to 200 nM. Also, the IC50 at MEK1 is below 5 nM.
Consider `CN(C)C(=O)Oc1ccc2c(c1)OC(=O)N(Cc1cccc(NS(=O)(=O)N3CC4(COC4)C3)c1F)C2` [Compound 109, 3-(2-fluoro-3-(2-oxa-6-azaspiro[3.3]heptane-6-sulfonamido)benzyl)-2-oxo-3,4-dihydro-2H-benzo[e][1,3]oxazin-7-yl dimethylcarbamate], for which, in the test with BRAF-MEK1, the EC50 lay in the range of 200 to 1000 nM. Besides, the IC50 on MEK1 was in the range of 5 to 50 nM.
As to `CNS(=O)(=O)Nc1cccc(CN2C(=O)Oc3cc(Oc4cccnn4)ccc3C23CC3)c1F` [Compound 196, 3-{[2-fluoro-3-(methylaminosulfonylamino)phenyl]methyl}-7-(3-pyridazinyloxy)-2H,3H-spiro[1,3-benzoxazine-4,1′-cyclopropan]-2-one], the EC50 in the test on BRAF-MEK1 is below 50 nM. In addition, at MEK1, the IC50 was below 5 nM.
Take `CNS(=O)(=O)Nc1cccc(CN2C(=O)Oc3c(ccc(OC(=O)N(C)C)c3F)[C@H]2C)c1F` (single isomer, unassigned) [Compound 104, (R)-8-fluoro-3-(2-fluoro-3-((N-methylsulfamoyl)amino)benzyl)-4-methyl-2-oxo-3,4-dihydro-2H-benzo[e][1,3]oxazin-7-yl dimethylcarbamate or (S)-8-fluoro-3-(2-fluoro-3-((N-methylsulfamoyl)amino)benzyl)-4-methyl-2-oxo-3,4-dihydro-2H-benzo[e][1,3]oxazin-7-yl dimethylcarbamate]: the EC50 in the test on BRAF-MEK1 fell in the range of 200 to 1000 nM. The IC50 on MEK1 fell in the range of 5 to 50 nM.
For the compound `C[C@H]1c2c(F)cc(Oc3cccnn3)cc2OC(=O)N1Cc1cccc(NS(=O)(=O)C2CC2)c1F` (single isomer, unassigned) [Compound 55], in the test with BRAF-MEK1, the EC50 lay in the range of 200 to 1000 nM. Also, on MEK1, the IC50 lay within 5 to 50 nM.
On to `CNS(=O)(=O)Nc1nccc(CN2C(=O)Oc3cc(Oc4nccnn4)cnc3[C@@H]2C)c1F` (stereo in doubt) [Compound 198, 3-{[3-fluoro-2-(methylaminosulfonylamino)-4-pyridyl]methyl}-4-methyl-7-(1,2,4-triazin-3-yloxy)-3,4-dihydro-2H-1-oxa-3,5-diazanaphthalen-2-one], for which the EC50 with BRAF-MEK1 (60 min) was below 50 nM. In addition, at MEK1, the IC50 was 5 to 50 nM.
For `C[C@H]1c2ccc(Oc3cccnn3)c(F)c2OC(=O)N1Cc1cccc(NS(=O)(=O)N(C)C)c1F` (single isomer, unassigned) [Compound 44], the EC50 in the test on BRAF-MEK1 fell in the range of 200 to 1000 nM. For the same compound, on MEK1, the IC50 is below 5 nM.
